From patent publication US11566018B2, “Treatment of infectious disease” (The Governors of the University of Alberta, priority 2018, dated 2023) come the findings set out here.

One data set is described as follows: MTT cell viability assay. The class given is cell-based, human. The conditions noted are these: human; 1HAEo- cells, dose response; read-out: CC50 (cytotoxic concentration at which cell viability is reduced by half). The protocol:
(§1) MTT cell viability assay. 1HAEo-cells were grown in parallel with infected and compound treated cells in SAR and dose response experiments. 0.3 mg/mL of MTT ((3-(4,5-dimethylthiazol-2-yl)-2,5-diphenyl tetrazolium bromide)) in PBS was added to wells and incubated for 1 hour. Precipitate was dissolved in DMSO and absorbance was measured at 570 nm.

Another data set deals with 1HAEo- cells. The experiment in a line: MTT cell viability assay. Format: cell-based, human. The conditions noted are these: compounds at 10 μM, SAR screens. The protocol: as §1
The subject of data set [1] is RSV-A2-GFP. The experiment in a line: Dose response experiments, progeny virus titered on HeLa cells. The conditions noted are these: 1HAEo- cells. The class given is cell-based, human RSV strain A2. The method, then: Dose response experiments. 1HAEo-cells were infected as described, progeny virus collected, and tittered on HeLa cells in duplicate as described in SAR 2. During initial infection in 1HAEo-cells infectious media was replaced with media containing compounds at indicated concentrations at 2 hours post infection. Proportion of virus infected cells were quantified via indirect immunofluorescence assay.
To further assess the therapeutic potential of compounds identified in SAR 1 and SAR 2, a therapeutic index (TI) of each compound was identified (e.g., ratio of […]). […] Overall, the TI was increased from 4.1 for compound 5a to 12.3 with compound 5f.

For a further data set, the system named is RSV-GFP-A2. The experiment in a line: Mutant escape assay (serial passage). Format: cell-based, human RSV strain A2. As to conditions: 14 serial passages over five weeks, 1HAEo- cells. The protocol: Mutant escape assay. 1HAEo-cells were infected with RSV-GFP-A2 at an initial MOI of 0.1 and serial passaged over incubation periods of 48-72 hours. Samples were collected during passaging and stored in liquid nitrogen for tittering via indirect immunofluorescence assay. Ongoing low level viral infection during passaging was confirmed by identification of green fluorescence from GFP produced by the RSV-GFP in infected cells.
An established challenge to development of antiviral pharmaceuticals is the evolution of antiviral resistance. This is pronounced for viruses with RNA genome due to an inherent error-prone process of RNA-dependent RNA polymerase replication of a viral genome. Error prone replication results in a high mutation rate of RNA viruses that leads to development of antiviral resistance. As such, development of resistant mutants to compounds 5a and 5f was undertaken, as the site of mutations could provide further insights into the nature of the viral target.

Data set [2] relates to RSV-A2-GFP. The experiment in a line: Structure activity relationship screens of antiviral activity (SAR 1/SAR 2); progeny virus by indirect immunofluorescence. As to conditions: compounds at 10 μM, 1HAEo- cells, progeny virus on HeLa indicator cells. Format: cell-based, human RSV strain A2. The protocol:
(§2) Cells and virus. Hep-2 cells were grown in Opti-MEM media supplemented with 2% fetal bovine serum (FBS), 1HAEo-cells were grown in MEM media supplemented with 10% FBS, and Hela cells grown in DMEM supplemented with 10% FBS. Infections were conducted using human RSV strain A2 or RSV-A2-GFP strain described previously [Hallak, L. K.; Spillmann, D.; Collins, P. L.; Peeples, M. E. J. Virol. 2000, 74, 10508-10513]. A549 cells and Vero cells were grown in DMEM supplemented with 10% FBS and used for experiments with ZIKV (Cambodia strain).
Structure activity relationship screens of antiviral activity. 1HAEo-cells were seeded at 80% confluency and incubated overnight. In SAR1 cells were preincubated with compounds for one hour at 20 μM prior to infection, followed by dilution to 10 μM and infection with RSV-A2-GFP at an MOI of 1 for 2 hours. In SAR2 1HAEo-cells were infected with RSV-A2-GFP at an MOI of 0.5 for 2 hours without pre-incubation with compounds. At 2 hours post infection, infectious media was removed from wells to prevent carry over of infecting virus into progeny collections. Fresh media containing compounds at 10 μM was added for remainder of 48 hour incubation. […]
Progeny virus quantification via indirect immunofluorescence. […] Total cells (identified by DAPI staining) and infected cells were counted via the Operetta high content imaging system at 20x objective magnification. […]

The test system of the next data set is ZIKV (Cambodia strain). Kind of data set: Zika Virus antiviral screen (plaque assay). Format: cell-based. The conditions noted are these: 10 μM, progeny virus quantified on Vero cells by plaque assay, n=3. The method, then: as §2
Zika Virus antiviral screen. Vero cells were pre-treated with bis(indole) compounds at 10 μM for 4 hours before infection with ZIKV at an MOI of 1. After 48 hour infection progeny ZIKV was collected, serial diluted over 6 logs, and transferred onto fresh Vero cell monolayers and incubated for 4 days. Vero cell monolayers were then fixed with 10% formaldehyde and stained with crystal violet; viral infection was quantified via plaque assay.
ZIKV constitutes a virus distinct from RSV with a markedly different intracellular replication strategy. Both viruses encode a viral RdRp essential to viral replication; however, the structure and function of RSV RdRp and ZIKV RdRp are quite different. […] RSV polymerase recognizes cis-acting ‘gene start’ and ‘gene end’ elements of the viral genome to produce subgenomic mRNAs enabling translation of viral proteins. […]

Data set [3] has as its target T1, RSV viral replication complex (Human respiratory syncytial virus A, UniProt P28887).
T1 construct: endogenous in cells; crude lysolecithin cell extract
Kind of data set: Cell extract-based in vitro inhibition of viral transcription. The class given is biochemical, RSV A2.

T1 sequence (P28887 whole entry): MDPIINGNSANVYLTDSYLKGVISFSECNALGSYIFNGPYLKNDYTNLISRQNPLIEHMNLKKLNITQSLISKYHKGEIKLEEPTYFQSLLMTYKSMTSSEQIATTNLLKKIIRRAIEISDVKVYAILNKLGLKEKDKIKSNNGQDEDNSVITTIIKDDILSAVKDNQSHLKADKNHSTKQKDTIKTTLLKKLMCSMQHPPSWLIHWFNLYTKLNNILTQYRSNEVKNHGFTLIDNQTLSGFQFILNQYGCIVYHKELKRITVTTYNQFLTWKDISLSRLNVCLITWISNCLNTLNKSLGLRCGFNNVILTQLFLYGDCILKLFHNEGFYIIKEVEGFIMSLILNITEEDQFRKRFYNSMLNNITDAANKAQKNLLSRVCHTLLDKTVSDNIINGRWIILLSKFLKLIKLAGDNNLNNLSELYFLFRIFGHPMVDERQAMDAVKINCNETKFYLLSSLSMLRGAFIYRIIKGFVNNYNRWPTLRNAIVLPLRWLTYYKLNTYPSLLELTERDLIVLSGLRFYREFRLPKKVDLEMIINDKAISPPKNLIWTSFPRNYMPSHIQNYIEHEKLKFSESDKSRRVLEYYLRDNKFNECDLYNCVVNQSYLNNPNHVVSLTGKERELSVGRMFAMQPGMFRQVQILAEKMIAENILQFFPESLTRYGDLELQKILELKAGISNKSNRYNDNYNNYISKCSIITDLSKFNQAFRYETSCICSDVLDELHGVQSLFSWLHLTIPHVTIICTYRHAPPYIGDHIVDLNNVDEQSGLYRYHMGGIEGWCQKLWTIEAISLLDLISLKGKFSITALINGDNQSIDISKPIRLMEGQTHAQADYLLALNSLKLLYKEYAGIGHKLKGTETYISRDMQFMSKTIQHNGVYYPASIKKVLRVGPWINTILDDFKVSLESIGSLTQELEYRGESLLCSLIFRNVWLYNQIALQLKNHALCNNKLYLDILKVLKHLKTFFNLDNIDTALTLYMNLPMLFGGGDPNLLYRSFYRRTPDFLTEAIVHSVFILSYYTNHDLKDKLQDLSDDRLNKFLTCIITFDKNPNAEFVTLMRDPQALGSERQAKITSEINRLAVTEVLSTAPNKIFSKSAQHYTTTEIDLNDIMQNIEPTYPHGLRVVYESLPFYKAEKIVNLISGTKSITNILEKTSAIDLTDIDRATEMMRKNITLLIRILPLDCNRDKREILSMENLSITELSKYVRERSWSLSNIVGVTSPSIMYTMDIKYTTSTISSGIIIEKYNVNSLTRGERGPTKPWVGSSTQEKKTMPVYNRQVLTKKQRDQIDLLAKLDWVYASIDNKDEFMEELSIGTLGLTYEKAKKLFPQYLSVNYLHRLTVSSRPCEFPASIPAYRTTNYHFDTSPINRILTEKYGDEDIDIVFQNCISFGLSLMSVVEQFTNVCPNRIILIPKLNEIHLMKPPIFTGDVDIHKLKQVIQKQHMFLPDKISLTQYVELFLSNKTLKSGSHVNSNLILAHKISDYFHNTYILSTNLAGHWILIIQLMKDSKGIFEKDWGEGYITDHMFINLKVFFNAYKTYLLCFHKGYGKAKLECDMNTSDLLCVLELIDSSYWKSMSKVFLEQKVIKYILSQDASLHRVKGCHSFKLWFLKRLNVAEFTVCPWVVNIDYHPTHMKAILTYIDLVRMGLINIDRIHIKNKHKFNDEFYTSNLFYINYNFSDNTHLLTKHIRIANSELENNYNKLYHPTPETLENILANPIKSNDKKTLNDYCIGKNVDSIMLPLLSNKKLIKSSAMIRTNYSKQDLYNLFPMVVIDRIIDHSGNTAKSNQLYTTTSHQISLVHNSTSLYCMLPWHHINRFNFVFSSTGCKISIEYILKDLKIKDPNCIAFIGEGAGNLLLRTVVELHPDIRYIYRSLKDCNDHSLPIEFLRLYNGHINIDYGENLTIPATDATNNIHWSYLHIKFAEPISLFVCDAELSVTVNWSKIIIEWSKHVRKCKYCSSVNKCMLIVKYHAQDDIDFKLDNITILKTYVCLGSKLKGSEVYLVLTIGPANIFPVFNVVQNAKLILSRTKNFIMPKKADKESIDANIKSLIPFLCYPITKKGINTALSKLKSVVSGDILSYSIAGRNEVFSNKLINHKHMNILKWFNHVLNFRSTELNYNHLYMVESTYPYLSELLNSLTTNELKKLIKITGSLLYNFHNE
T1 sequence (P03421 whole entry, further chain): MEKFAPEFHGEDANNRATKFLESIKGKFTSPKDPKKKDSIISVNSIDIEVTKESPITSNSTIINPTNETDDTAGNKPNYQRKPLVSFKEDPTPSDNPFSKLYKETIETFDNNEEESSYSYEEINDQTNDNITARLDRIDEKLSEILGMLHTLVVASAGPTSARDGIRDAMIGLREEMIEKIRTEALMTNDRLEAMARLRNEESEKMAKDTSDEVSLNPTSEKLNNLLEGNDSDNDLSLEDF

As for `COC(=O)C1(c2cn(C)c3ccccc23)Nc2cc(Cl)ccc2C1=O` (stereo not shown) [Compound 2p], in “MTT cell viability assay”, the CC50 was 22.8 µM. In addition, in the data set on 1HAEo- cells, the “cytotoxicity (cell viability)” value is “demonstrated cytotoxicity in SAR 1”. Further, in the data set with RSV-A2-GFP [1], the “viral replication at concentrations tolerated by the host cell” value is “viral replication was not diminished at compound concentrations tolerated by the host cell”.
Regarding `COC(=O)C1(c2c(-c3ccc(OC)cc3)[nH]c3ccccc23)Nc2cc(Br)ccc2C1=O` (stereo not shown) [Compound 5f], the “development of resistant virus” value in the data set on RSV-GFP-A2 is “did not result in the development of viruses resistant to either compound”. Also, the CC50 in “MTT cell viability assay” came to 93.5 µM.
For `COC(=O)C1(c2c(-c3ccc(OC)cc3)[nH]c3ccccc23)Nc2cc(Cl)ccc2C1=O` (stereo not shown) [Compound 5b], the CC50 in “MTT cell viability assay” turned out to be 59.2 µM.
Regarding `COC(=O)C1(c2c(-c3ccccc3)[nH]c3ccccc23)Nc2cc(Cl)ccc2C1=O` (stereo not shown) [Compound 5a], in the data set with RSV-GFP-A2, the “development of resistant virus” value is “did not result in the development of viruses resistant to either compound”. For the same molecule, the “antiviral activity (inhibition of RSV infection)” value in the data set on RSV-A2-GFP [2] is reported as “comparable to that of the known antiviral guanosine-analogue drug ribavirin”. In the data set on ZIKV (Cambodia strain), the “inhibition of ZIKV infection” value was “Significant inhibition”. The CC50 in the data set “MTT cell viability assay” was determined as 42.5 µM. Besides, the “cytotoxicity (cell viability)” value in the data set with 1HAEo- cells is given as “no cytotoxicity”. Further, in data set [3], the “viral transcription from the RSV replication complex” value is listed as “Decreasing viral transcription from the RSV replication complex was observed in a dose dependent manner”. In the data set on RSV-A2-GFP [1], the “viral replication at concentrations tolerated by the host cell” value is given as “consistently inhibited viral replication at concentrations tolerated by the host cell”.
